Laboratory results reported in US9610234B2, “Combinations of alkylamidothiazoles and preservatives” (Beiersdorf AG, priority 2013, dated 2017).

Biological target: T1, human tyrosinase (Homo sapiens, UniProt P14679)
T1 sequence (P14679 19-529): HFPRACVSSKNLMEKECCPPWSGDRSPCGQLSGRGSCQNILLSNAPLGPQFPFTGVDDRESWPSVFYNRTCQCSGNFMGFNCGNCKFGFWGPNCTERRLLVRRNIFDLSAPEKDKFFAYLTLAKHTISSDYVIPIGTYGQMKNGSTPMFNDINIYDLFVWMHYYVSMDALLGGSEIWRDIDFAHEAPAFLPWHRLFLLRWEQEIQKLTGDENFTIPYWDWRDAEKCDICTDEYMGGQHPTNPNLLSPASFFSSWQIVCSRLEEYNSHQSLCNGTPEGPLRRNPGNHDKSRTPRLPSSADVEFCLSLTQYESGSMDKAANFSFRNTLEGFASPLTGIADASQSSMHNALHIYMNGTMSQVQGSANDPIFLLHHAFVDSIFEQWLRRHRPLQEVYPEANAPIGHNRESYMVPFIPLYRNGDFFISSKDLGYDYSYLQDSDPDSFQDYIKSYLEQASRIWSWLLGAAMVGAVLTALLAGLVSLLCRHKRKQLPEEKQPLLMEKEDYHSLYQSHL
Test: Enzyme test: conversion of L-DOPA to L-dopaquinone by human tyrosinase (MBTH, absorption at 490 nm)
Type: biochemical
Conditions: tyrosinase activity
Protocol: Method Description of the Effectiveness Investigations:
In this literature-known method (Winder, A. J. and Harris, H., New assays for the tyrosine hydroxylase and dopa oxidase activities of tyrosinase. Eur. J. Biochem. (1991), 198, 317-26), the reaction product L-dopaquinone is reacted with MBTH (3-methyl-2-benzothiazoline hydrazone) to give a pink-colored substance, the increase of which is measured over time by absorption at 490 nm. […] It can be concluded from this that the substances according to the invention are extremely effective pigmentation-inhibiting substances.

| Structure (SMILES) | Inhibition (% of the control) (concentration 200 μg/mL) | Inhibition (% of the control) (concentration 0.4 μg/mL) |
| --- | --- | --- |
| O=C([O-])c1ccccc1.[Na+] [Sodium benzoate] | 43.6 % of the control | – |
| C/C=C/C=C/C(=O)[O-].[K+] [Potassium sorbate] | 42.0 % of the control | – |
| CC(C)C(=O)Nc1nc(-c2ccc(O)cc2O)cs1 [N-(4-(2,4-dihydroxyphenyl)thiazol-2-yl)isobutyramide] | – | 38.2 % of the control |
